From US20230270804A1, “ANTI-HYPERCHOLESTEROLEMIA COMPOSITION AND A METHOD OF MANUFACTURING THE SAME” (NBI BIOSCIENCES PRIVATE LIMITED, priority 2020, published 2023)

Experiments:
[1] = system: heart, spleen, lungs, kidney, liver, Aorta; experiment: Therapeutic study: histopathology (heart, spleen, lungs, kidney, liver, aorta); assay type: in vivo
Text: FIG. 7 depicts the histopathological images of heart. […] FIG. 8 depicts the histopathological images of spleen. […] FIG. 9 depicts the histopathological images of lungs. […] FIG. 10 depicts the histopathological images of kidney. […] FIG. 11 depicts the histopathological images of liver.
The long-term rise in the electrolyte such as Na and are associated with blood pressure disorders impacting the heart.

[2] = system: Creatine phosphokinase (CPK), Lactate dehydrogenase (LDH), SGOT and SGPT; experiment: Prophylactic study: CPK, LDH, SGOT, SGPT; assay type: in vivo, Wistar strain albino rats
Protocol: (§1) 1.5-2 ml blood sample was taken from retino-orbital chamber in vials for biochemical estimations at every 15 days. Investigations performed included detailed Total Cholesterol—TC (mg/dl), Triglyceride—TG (mg/dl), High Density Lipoprotein—HDL-C (mg/dl), Low Density Lipoprotein—LDL-C (mg/dl), Very Low-Density Lipoprotein—VLDL (mg/dl), WBC (10^3/u1), RBC (10^6/u1), Hb (g/dl), PCV (%), Reticulocyte (%), Platelet count 10^5/mm^3, Clotting time (Sec), Neutrophils, Lymphocyte, Monocyte and Eosinophil. The estimations were done with Ecoline kits from Erba Mannheim, ERBA diagnostics Mannheml, Germany using Semi Autoanalyzer RX50 of MicroLabs Instruments and COUNCELL21 of Tulip Diagnostics Pvt. Ltd. Lipid peroxidation (Plasma & Liver), HMG Co-Reductase, Creatine phosphokinase (CPK), Lactate dehydrogenase (LDH), SGOT and SGPT were estimated at the end of both the studies using the kits.

[3] = Prophylactic study (90 days): body weight; assay type: in vivo, Wistar strain albino rats; conditions: for Average Body Weight: HFD+normal diet
Protocol: (§2) Wistar strain albino rats of body weight ranging from 190-225 g were selected for the present study. The temperature and humidity were kept at optimum (22+2° C.; 40-70% and animals were exposed to natural chronological day night cycles. The experiments were carried out in conformity with the Institutional Animal Ethics Committee.
(§3) The 6 groups were as follows: • 1. Normal Control • 2.

[4] = Therapeutic study: hematological parameters; assay type: in vivo, Wistar strain albino rats; conditions: for Lymphocyte / Neutrophils: in % (unit assumed); for Eosinophil: unit assumed
Protocol: as §2, §3, §1

[5] = HFD+normal diet, after sacrifice

For `CC(C)c1c(C(=O)Nc2ccccc2)c(-c2ccccc2)c(-c2ccc(F)cc2)n1CC[C@@H](O)C[C@@H](O)CC(=O)O` [Statin, Atorvastatin], the histopathology of heart ([1]; HFD) was “cardiac muscle were found stressed”, the aorta plaque reduction ([1]; HFD continued) was “mild” and the aorta plaque reduction ([1]; HFD discontinued) was “moderate reduction in the plaque”. For the same compound, the “damage to the endothelial lining” value ([1]; aorta histopathology) was “mild damage to the endothelial lining”, the Creatine phosphokinase [2, 5] was 1.33 ± 0.04 U/ml and the LDH [2, 5] was 278.50 ± 5.50 U/ml. The SGOT [2, 5] was 59.03 ± 1.49 U/ml, the SGPT [2, 5] was 55.63 ± 0.51 U/ml and the “Inhibition in SGPT activity” value ([2]; prophylactic study, composition twice a day) was 20%. The “Average Body Weight” value ([3]; day 0) was 209.83 ± 26.39 gms, the “Average Body Weight” value ([3]; day 15) was 213.16 ± 27.47 gms and the “Average Body Weight” value ([3]; day 30) was 209.10 ± 20.10 gms. The “Average Body Weight” value ([3]; day 45) was 223.83 ± 28.41 gms, the “Average Body Weight” value ([3]; day 60) was 222.6 ± 17.46 gms and the “Average Body Weight” value ([3]; day 75) was 223.05 ± 8.08 gms. The “Average Body Weight” value ([3]; day 90) was 229.72 ± 6.13 gms, the “maintenance of body weight” value ([3]; prophylactic study, after HFD treatment) was “not able to maintain the body weight” and the Clotting time ([4]; HFD continued, day 0) was 113.33 ± 1.15 s. The Hb ([4]; HFD continued, day 0) was 12.30 ± 0.20 g/dL, the Monocyte ([4]; HFD continued, day 0) was 1.35% and the PCV ([4]; HFD continued, day 0) was 42.57 ± 1.36%. The Platelet count ([4]; HFD continued, day 0) was 1070 ± 13.9 10³/µL, the RBC ([4]; HFD continued, day 0) was 7.93 ± 0.15 10^6/μl and the Reticulocyte ([4]; HFD continued, day 0) was 1.28 ± 0.03%. The Lymphocyte ([4]; HFD continued, day 0) was 72, the Neutrophils ([4]; HFD continued, day 0) was 25.5 and the Eosinophil ([4]; HFD continued, day 0) was 1.25%. It also gave a Clotting time ([4]; HFD continued, day 15) of 114.33 ± 1.15 s, a Hb ([4]; HFD continued, day 15) of 12.40 ± 0.20 g/dL and a Monocyte ([4]; HFD continued, day 15) of 1.35%. For the same compound, the PCV ([4]; HFD continued, day 15) was 43.43 ± 1.53%, the Platelet count ([4]; HFD continued, day 15) was 1070 ± 11.6 10³/µL and the RBC ([4]; HFD continued, day 15) was 8.07 ± 0.15 10^6/μl. The WBC ([4]; HFD continued, day 15) was 8.58 ± 0.32 103/μl, the Lymphocyte ([4]; HFD continued, day 15) was 72 and the Neutrophils ([4]; HFD continued, day 15) was 25.5. It also gave an Eosinophil ([4]; HFD continued, day 15) of 1.25%, a Clotting time ([4]; HFD continued, day 30) of 114.37 ± 0.71 s and a Hb ([4]; HFD continued, day 30) of 12.83 ± 0.25 g/dL. The PCV ([4]; HFD continued, day 30) was 42.85 ± 0.25%, the Platelet count ([4]; HFD continued, day 30) was 1087 ± 3.61 10³/µL and the RBC ([4]; HFD continued, day 30) was 7.95 ± 0.03 10^6/μl. The Reticulocyte ([4]; HFD continued, day 30) was 1.31 ± 0.03%, the WBC ([4]; HFD continued, day 30) was 8.72 ± 0.07 103/μl and the Lymphocyte ([4]; HFD continued, day 30) was 71.2. The Neutrophils ([4]; HFD continued, day 30) was 26, the Eosinophil ([4]; HFD continued, day 30) was 1.28% and the Clotting time ([4]; HFD continued, day 45) was 114.40 ± 0.46 s. It also gave a Hb ([4]; HFD continued, day 45) of 12.88 ± 0.28 g/dL, a Monocyte ([4]; HFD continued, day 45) of 1.33% and a PCV ([4]; HFD continued, day 45) of 42.93 ± 0.42%. The Platelet count ([4]; HFD continued, day 45) was 1080 ± 14.5 10³/µL, the RBC ([4]; HFD continued, day 45) was 7.90 ± 0.05 10^6/μl and the Reticulocyte ([4]; HFD continued, day 45) was 1.33 ± 0.02%. For the same compound, the WBC ([4]; HFD continued, day 45) was 8.65 ± 0.08 103/μl, the Lymphocyte ([4]; HFD continued, day 45) was 71.67 and the Neutrophils ([4]; HFD continued, day 45) was 25.73. It also gave an Eosinophil ([4]; HFD continued, day 45) of 1.27%, a Clotting time ([4]; HFD continued, day 60) of 113.33 ± 1.24 s and a Hb ([4]; HFD continued, day 60) of 12.76 ± 0.28 g/dL. For the same compound, the PCV ([4]; HFD continued, day 60) was 42.53 ± 0.57%, the Platelet count ([4]; HFD continued, day 60) was 1070 ± 17 10³/µL and the RBC ([4]; HFD continued, day 60) was 7.83 ± 0.09 10^6/μl. The WBC ([4]; HFD continued, day 60) was 8.57 ± 0.12 103/μl, the Lymphocyte ([4]; HFD continued, day 60) was 71.67 and the Neutrophils ([4]; HFD continued, day 60) was 25.70. For the same compound, the Eosinophil ([4]; HFD continued, day 60) was 1.28%, the Clotting time ([4]; HFD discontinued, day 0) was 113.33 ± 1.53 s and the Hb ([4]; HFD discontinued, day 0) was 12.53 ± 0.38 g/dL. For the same compound, the Monocyte ([4]; HFD discontinued, day 0) was 1.35%, the PCV ([4]; HFD discontinued, day 0) was 41.43 ± 1.07% and the Platelet count ([4]; HFD discontinued, day 0) was 1080 ± 11 10³/µL. For the same compound, the RBC ([4]; HFD discontinued, day 0) was 7.73 ± 0.52 10^6/μl, the Reticulocyte ([4]; HFD discontinued, day 0) was 1.24 ± 0.04% and the WBC ([4]; HFD discontinued, day 0) was 8.67 ± 0.59 103/μl. For the same compound, the Lymphocyte ([4]; HFD discontinued, day 0) was 72, the Neutrophils ([4]; HFD discontinued, day 0) was 25.87 and the Eosinophil ([4]; HFD discontinued, day 0) was 1.25%. It also gave a Clotting time ([4]; HFD discontinued, day 15) of 113.50 ± 1.00 s, a Hb ([4]; HFD discontinued, day 15) of 12.58 ± 0.08 g/dL and a Monocyte ([4]; HFD discontinued, day 15) of 1.35%. The PCV ([4]; HFD discontinued, day 15) was 41.63 ± 1.02%, the Platelet count ([4]; HFD discontinued, day 15) was 1087 ± 8.02 10³/µL and the RBC ([4]; HFD discontinued, day 15) was 7.97 ± 0.32 10^6/μl. The Reticulocyte ([4]; HFD discontinued, day 15) was 1.26 ± 0.01%, the WBC ([4]; HFD discontinued, day 15) was 8.57 ± 0.42 103/μl and the Lymphocyte ([4]; HFD discontinued, day 15) was 72. The Neutrophils ([4]; HFD discontinued, day 15) was 25.97, the Eosinophil ([4]; HFD discontinued, day 15) was 1.25% and the Clotting time ([4]; HFD discontinued, day 30) was 113.00 ± 0.70 s. For the same compound, the Hb ([4]; HFD discontinued, day 30) was 12.62 ± 0.07 g/dL, the PCV ([4]; HFD discontinued, day 30) was 41.64 ± 0.07% and the Platelet count ([4]; HFD discontinued, day 30) was 1086 ± 8.19 10³/µL. For the same compound, the RBC ([4]; HFD discontinued, day 30) was 7.73 ± 0.03 10^6/μl, the Reticulocyte ([4]; HFD discontinued, day 30) was 1.27 ± 0.02% and the WBC ([4]; HFD discontinued, day 30) was 8.58 ± 0.04 103/μl. For the same compound, the Lymphocyte ([4]; HFD discontinued, day 30) was 71.3, the Neutrophils ([4]; HFD discontinued, day 30) was 26.1 and the Eosinophil ([4]; HFD discontinued, day 30) was 1.26%. For the same compound, the Clotting time ([4]; HFD discontinued, day 45) was 113.17 ± 0.35 s, the Hb ([4]; HFD discontinued, day 45) was 12.87 ± 0.26 g/dL and the Monocyte ([4]; HFD discontinued, day 45) was 1.27%. For the same compound, the PCV ([4]; HFD discontinued, day 45) was 41.42 ± 0.50%, the Platelet count ([4]; HFD discontinued, day 45) was 1070 ± 18.7 10³/µL and the RBC ([4]; HFD discontinued, day 45) was 7.65 ± 0.08 10^6/μl. The Reticulocyte ([4]; HFD discontinued, day 45) was 1.28 ± 0.07%, the WBC ([4]; HFD discontinued, day 45) was 8.51 ± 0.14 103/μl and the Lymphocyte ([4]; HFD discontinued, day 45) was 71.58. It also gave a Neutrophils ([4]; HFD discontinued, day 45) of 25.9, an Eosinophil ([4]; HFD discontinued, day 45) of 1.25% and a Clotting time ([4]; HFD discontinued, day 60) of 112.04 ± 1.28 s. It also gave a Hb ([4]; HFD discontinued, day 60) of 12.74 ± 0.27 g/dL, a Monocyte ([4]; HFD discontinued, day 60) of 1.25% and a PCV ([4]; HFD discontinued, day 60) of 41.01 ± 0.64%. The Platelet count ([4]; HFD discontinued, day 60) was 1060 ± 20.3 10³/µL, the RBC ([4]; HFD discontinued, day 60) was 7.57 ± 0.11 10^6/μl and the Reticulocyte ([4]; HFD discontinued, day 60) was 1.26 ± 0.06%. The WBC ([4]; HFD discontinued, day 60) was 8.42 ± 0.16 103/μl, the Lymphocyte ([4]; HFD discontinued, day 60) was 71.70 and the Neutrophils ([4]; HFD discontinued, day 60) was 25.81. It also gave an Eosinophil ([4]; HFD discontinued, day 60) of 1.24%.
